Laboratory results from ChEMBL document CHEMBL2057206, “Symmetrical approach of spiro-pyrazolidinediones as acetyl-CoA carboxylase inhibitors” (Bioorg Med Chem Lett, 2012).
Calls of active or inactive are those of the source. The calls are words filed in the database; no cut-off is given here.

Key:
[1] = Lipophilicity, log D of the compound by HPLC analysis at pH 7; type: physicochemical; settings: buffer
[2] = Clearance in human liver microsomes assessed per mg of protein; type: ADME, Microsome; settings: read-out: CLH
Acetyl-CoA carboxylase 2 = Acetyl-CoA carboxylase 2 (Homo sapiens, UniProt O00763); experiment: Inhibition of human ACC2 using acetyl-coA as substrate incubated for 60 mins prior to substrate addition measured after 20 mins by malachite green assay
Acetyl-CoA carboxylase 2, sequence (O00763 whole entry): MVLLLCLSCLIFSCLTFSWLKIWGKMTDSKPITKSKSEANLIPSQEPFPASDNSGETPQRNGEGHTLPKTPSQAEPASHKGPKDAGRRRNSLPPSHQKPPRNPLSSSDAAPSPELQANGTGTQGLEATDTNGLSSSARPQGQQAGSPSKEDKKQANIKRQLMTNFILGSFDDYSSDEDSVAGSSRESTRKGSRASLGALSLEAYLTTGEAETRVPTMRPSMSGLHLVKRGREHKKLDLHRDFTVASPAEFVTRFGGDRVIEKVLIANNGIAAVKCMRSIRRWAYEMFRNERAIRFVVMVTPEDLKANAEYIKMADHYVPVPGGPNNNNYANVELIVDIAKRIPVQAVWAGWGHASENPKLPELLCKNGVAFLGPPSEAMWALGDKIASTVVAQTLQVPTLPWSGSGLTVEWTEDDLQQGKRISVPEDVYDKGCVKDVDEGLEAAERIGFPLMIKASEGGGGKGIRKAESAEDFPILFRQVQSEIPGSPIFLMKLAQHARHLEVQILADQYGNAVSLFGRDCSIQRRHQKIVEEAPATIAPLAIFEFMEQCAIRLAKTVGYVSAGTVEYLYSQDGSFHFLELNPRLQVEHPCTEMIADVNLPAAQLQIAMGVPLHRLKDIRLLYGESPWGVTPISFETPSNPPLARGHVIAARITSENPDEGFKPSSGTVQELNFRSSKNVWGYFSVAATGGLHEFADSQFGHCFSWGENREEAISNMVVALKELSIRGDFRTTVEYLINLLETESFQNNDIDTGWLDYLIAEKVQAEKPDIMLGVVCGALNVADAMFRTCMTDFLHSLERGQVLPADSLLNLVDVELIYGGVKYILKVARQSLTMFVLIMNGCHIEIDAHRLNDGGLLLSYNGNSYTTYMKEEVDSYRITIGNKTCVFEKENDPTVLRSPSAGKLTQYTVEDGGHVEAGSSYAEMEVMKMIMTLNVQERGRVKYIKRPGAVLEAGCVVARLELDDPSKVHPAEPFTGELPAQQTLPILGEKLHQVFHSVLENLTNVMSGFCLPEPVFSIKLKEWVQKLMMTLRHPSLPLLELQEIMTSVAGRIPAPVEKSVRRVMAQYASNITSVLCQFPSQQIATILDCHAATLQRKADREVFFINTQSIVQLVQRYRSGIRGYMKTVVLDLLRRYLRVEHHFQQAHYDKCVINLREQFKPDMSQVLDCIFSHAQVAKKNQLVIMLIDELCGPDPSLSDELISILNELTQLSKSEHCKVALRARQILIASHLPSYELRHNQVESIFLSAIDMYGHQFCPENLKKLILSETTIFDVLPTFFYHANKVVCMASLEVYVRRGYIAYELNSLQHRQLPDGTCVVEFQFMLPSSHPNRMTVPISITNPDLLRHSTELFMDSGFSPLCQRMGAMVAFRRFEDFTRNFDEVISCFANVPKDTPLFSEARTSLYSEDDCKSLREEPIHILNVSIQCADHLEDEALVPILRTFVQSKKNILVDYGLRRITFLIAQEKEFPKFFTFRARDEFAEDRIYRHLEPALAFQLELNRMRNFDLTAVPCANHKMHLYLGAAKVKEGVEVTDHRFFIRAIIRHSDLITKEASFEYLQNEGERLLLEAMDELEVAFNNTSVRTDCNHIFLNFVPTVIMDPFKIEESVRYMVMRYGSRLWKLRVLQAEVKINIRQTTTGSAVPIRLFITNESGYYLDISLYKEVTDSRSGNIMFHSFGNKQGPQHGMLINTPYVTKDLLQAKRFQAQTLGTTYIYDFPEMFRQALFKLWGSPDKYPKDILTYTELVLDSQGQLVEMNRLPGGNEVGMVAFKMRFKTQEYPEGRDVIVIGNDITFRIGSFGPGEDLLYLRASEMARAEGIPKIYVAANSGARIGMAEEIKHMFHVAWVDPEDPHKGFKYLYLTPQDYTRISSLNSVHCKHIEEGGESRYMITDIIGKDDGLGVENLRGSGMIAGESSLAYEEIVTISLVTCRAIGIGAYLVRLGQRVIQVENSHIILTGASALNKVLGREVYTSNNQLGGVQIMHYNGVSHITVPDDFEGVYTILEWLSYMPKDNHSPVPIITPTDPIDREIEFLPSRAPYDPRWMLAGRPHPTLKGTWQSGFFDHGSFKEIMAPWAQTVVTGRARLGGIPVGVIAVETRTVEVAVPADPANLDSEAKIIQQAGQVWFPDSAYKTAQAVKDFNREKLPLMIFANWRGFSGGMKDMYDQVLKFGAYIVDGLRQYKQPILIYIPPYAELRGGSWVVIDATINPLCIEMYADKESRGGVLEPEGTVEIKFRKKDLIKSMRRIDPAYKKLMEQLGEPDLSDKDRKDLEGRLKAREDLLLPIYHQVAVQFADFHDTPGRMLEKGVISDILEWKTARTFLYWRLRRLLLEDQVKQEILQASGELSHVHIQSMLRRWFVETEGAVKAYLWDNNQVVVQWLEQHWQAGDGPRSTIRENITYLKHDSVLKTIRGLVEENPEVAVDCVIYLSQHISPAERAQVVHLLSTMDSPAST

Acetyl-CoA carboxylase 1 [3] = molecular target: Acetyl-CoA carboxylase 1 (Homo sapiens, UniProt Q13085); experiment: Inhibition of human ACC1 using acetyl-coA as substrate incubated for 60 mins prior to substrate addition measured after 20 mins by malachite green assay
Rattus norvegicus [4] = experiment: Antidyslipidemic activity in po dosed Wistar fatty rat assessed as reduction in respiratory quoteint after 3 hrs; type: functional, organism-based
Acetyl-CoA carboxylase 1 [5] = molecular target: Acetyl-CoA carboxylase 1 (Rattus norvegicus, UniProt P11497); experiment: Inhibition of rat ACC1
Rattus norvegicus [6] = experiment: Antidyslipidemic activity in Wistar fatty rat assessed as reduction in respiratory quoteint at 1 mg/kg, po after 3 hrs; type: functional, organism-based; design: dose 1 mg/kg
[7] = Inhibition of rat ACC2

Row | logD [1] | microsomal CLint [2] | IC50 (Acetyl-CoA carboxylase 2) | IC50 (Acetyl-CoA carboxylase 1 [3]) | IC50 (Acetyl-CoA carboxylase 1 [5]) | IC50 [7] | SMILES | Activity (Rattus norvegicus [4]) | Activity (Rattus norvegicus [6])
1 | 2.08 | 6 µL/min/mg | 0.0061 µM | 0.025 µM | – | – | CNC(=O)Nc1sc2c(OC)cccc2c1C(=O)N1CCC(N2CCCC3(C2)C(=O)N2CCCCN2C3=O)CC1 | – | –
2 | 2.73 | 200 µL/min/mg | 0.0051 µM | 0.022 µM | – | – | CCNC(=O)Nc1sc2ccccc2c1C(=O)N1CCC(N2CCCC3(C2)C(=O)N2CCCCCCN2C3=O)CC1 | – | –
3 | 2.14 | 71 µL/min/mg | 0.0087 µM | 0.048 µM | – | – | CNC(=O)Nc1sc2ccccc2c1C(=O)N1CCC(N2CCCC3(C2)C(=O)N2CCCCCN2C3=O)CC1 | – | –
4 | 1.93 | 25 µL/min/mg | 0.033 µM | 0.17 µM | – | – | CCNC(=O)Nc1sc2ccccc2c1C(=O)N1CCC(N2CCCC3(C2)C(=O)N2CCCN2C3=O)CC1 | – | –
5 | 2.14 | 12 µL/min/mg | 0.036 µM | 0.2 µM | – | – | CNC(=O)Nc1sc2ccccc2c1C(=O)N1CCC(N2CCCC3(C2)C(=O)N2CCCCN2C3=O)CC1 | – | –
6 | 2.33 | 35 µL/min/mg | 0.0049 µM | 0.021 µM | 0.028 µM | 0.013 µM | CCNC(=O)Nc1sc2c(OC)cccc2c1C(=O)N1CCC(N2CCCC3(C2)C(=O)N2CCCCN2C3=O)CC1 | Dose-dependent effect | Active
7 | 1.76 | 15 µL/min/mg | 0.0059 µM | 0.022 µM | – | – | COc1cccc2c(C(=O)N3CCC(N4CCCC5(C4)C(=O)N4CCCCN4C5=O)CC3)c(NC(N)=O)sc12 | – | –
8 | 2.48 | 100 µL/min/mg | 0.0075 µM | 0.043 µM | – | – | CCNC(=O)Nc1sc2ccccc2c1C(=O)N1CCC(N2CCCC3(C2)C(=O)N2CCCCCN2C3=O)CC1 | – | –
9 | 2.45 | 18 µL/min/mg | 0.023 µM | 0.13 µM | – | – | CCNC(=O)Nc1sc2ccccc2c1C(=O)N1CCC(N2CCCC3(C2)C(=O)N2CCCCN2C3=O)CC1 | – | –
10 | 2.03 | 12 µL/min/mg | 0.02 µM | 0.12 µM | – | – | CCNC(=O)Nc1sc2ccccc2c1C(=O)N1CCC(N2CCCC3(C2)C(=O)N(C)N(C)C3=O)CC1 | – | –
11 | 2.33 | 120 µL/min/mg | 0.0081 µM | 0.041 µM | – | – | CCN1C(=O)C2(CCCN(C3CCN(C(=O)c4c(NC(=O)NC)sc5ccccc45)CC3)C2)C(=O)N1CC | – | –
